Test results as given in ChEMBL document CHEMBL1828607, “N-Heteroaryl glycinamides and glycinamines as potent NPY5 antagonists” (Bioorg Med Chem Lett, 2011).
In brackets after ≈: the same amount, converted by molar mass.

Assays:
[1] = physchem; conditions: octanol/water
Description: Lipophilicity, log D of the compound

[2] = in vivo; conditions: Sprague-Dawley, rat, plasma, po, 10 mg/kg
Description: Drug level in femoral artery cannulated Sprague-Dawley rat plasma at 10 mg/kg, po after 1 hr by LC/MS/MS method

[3] = physchem; conditions: buffer, pH 7.4
Description: Solubility of the compound at pH 7.4

[4] = in vivo; conditions: Sprague-Dawley, rat, brain, po, 10 mg/kg
Description: Drug level in femoral artery cannulated Sprague-Dawley rat brain at 10 mg/kg, po after 1 hr by LC/MS/MS method

[5] = in vivo; conditions: Sprague-Dawley, rat, brain/plasma, po, 10 mg/kg
Description: Ratio of drug level in brain to plasma in femoral artery cannulated Sprague-Dawley rat at 10 mg/kg, po after 1 hr by LC/MS/MS method

concentration at 1 h [2] [nM] | concentration at 1 h [4] [nM] | Kp at 1 h [5] | SMILES | logD [1] | solubility [3] [µg/mL]
481 | 33 | 0.07 | CC(C)S(=O)(=O)NC[C@H]1CC[C@H](NC(=O)CN2C(=O)COc3cc(Cl)ccc32)CC1 | – | –
430 | 43 | 0.1 | CC(C)S(=O)(=O)NC[C@H]1CC[C@H](NC(=O)CN2CCOc3cc(Cl)ccc32)CC1 | – | –
879 | 16 | 0.02 | CC(C)S(=O)(=O)NC[C@H]1CC[C@H](NC(=O)CN2C(=O)CCc3cc(Cl)ccc32)CC1 | – | –

SMILES | concentration at 1 h [2] [nM] | concentration at 1 h [4] [nM] | Kp at 1 h [5] | logD [1] | solubility [3] [µg/mL]
CN(C)S(=O)(=O)NC[C@H]1CC[C@H](NC(=O)CN2C(=O)CC(C)(C)Sc3ccccc32)CC1 | 1.5 | – | – | 2.4 | 440 (≈ 912 µM)
